In patent publication US20030148925A1, “Insulin formulation for inhalation” (priority 2000, published 2003):

Conditions: dog, in vivo
Description: The objective of this study was to determine the bioavailability of 4 novel insulin dry powder formulations following administration by the inhalation route. Each test formulation was administered to 5 dogs and the plasma insulin and whole blood glucose levels were determined. Comparative bioavailability was assessed against a marketed insulin formulation (E) administered subcutaneously. Inhalation administration was undertaken via a surgically prepared tracheostome to allow direct entry to the bronchiopulmonary region of the lungs.
The four test materials coded A-D (for inhalation administration), were supplied as spray-dried powder formulations in glass vials, whilst formulation E (for subcutaneous administration) was supplied as a liquid. Formulations A-D were stored in the dark at ambient room temperature, whilst formulation E was stored at +4° C.
Formulation E (Humulin S) was supplied as a 100 IU/ml solution. The dose required for the pilot phase of the study was 1.5 IU/dog. Due to the small volumes of Humulin S required, this formulation was diluted with sterile water for injection to allow larger volumes of the correct dose level to be administered.
For the main study, 5 dogs (Animals 2-6) were used. Initially each dog received a subcutaneous dose of insulin (1.5 IU) to provide comparative plasma insulin and whole blood glucose levels. Following a minimum 2-3 day wash-out period, each dog was administered one of the 4 insulin formulations, in a randomised order, by direct inhalation exposure (7.5 IU) to an aerosol bolus delivered via a surgically prepared tracheostome. The remaining 3 insulin formulations were administered in a similar manner at approximately 2 day intervals. The tracheostome was surgically prepared, with the dogs under general anaesthesia, approximately 2 weeks before dosing.
The administered doses of insulin were derived by analytical determination by subtracting the amount of insulin retained in the dosing device from the total insulin loaded. The actual insulin units delivered are calculated based on the assumption that each milligram of insulin is equivalent to 28.6 units.
Serial blood samples were obtained on each day of treatment to determine plasma insulin and whole blood glucose levels.
A linear trapezoidal calculation of the area under the curve (AUC) was used to derive the values from the overall mean insulin blood concentration data.

Substance	AUC Normalised (Relative %)	AUC Normalised (relative to the subcutaneous dose of 1.5 units) [uU.min/ml]	AUC Per Dose [uU.min/ml]	rank of AUC following normalisation to the doses administered
Humulin S [Formulation E]	(100) %	2916	2916	
Zinc Insulin [Formulation A]	(4.2) %	123	657	
Insulin Without Zinc [Formulation B]	(8.0) %	234	773	
20% Zinc Insulin in Trehalose [Formulation D]	(17.0) %	495	2355	highest AUC
95% Zinc Insulin in Trehalose [Formulation C]	(6.4) %	188	625	
